Assay results as given in US20080206866A1, “Reagency and Method for Preventing Time-Dependent Expression in Biological Cells” (ANDNAGEN AG, priority 2005, published 2008).

Legend:
[1] = test system: tumour-associated transcripts GA733-2, MUC-1 and Her-2; assay: Detection of time-dependent induced transcription in treated blood samples of healthy donors (immunomagnetic cell selection, RT-PCR, Bioanalyser); assay type: cell-based, human; conditions: healthy donor
Source text: (§1) In all the examples which are represented subsequently, an analysis was implemented as described in EP 02 732 726. Antibodies were thereby coupled to magnetic particles for cell selection. The antibodies represented subsequently in Table 1 were thereby used as antibodies.
(§2) The magnetic particles were thereby used in a concentration of 4×10^8 beads/ml (CELLection™ Pan Mouse IgG Kit, company Dynal). The ratios between the antibody concentration and the antibodies coupled thereto are reproduced in Table 2.
The magnetic particles prepared in this way were mixed in equal parts and added to the blood (EDTA) in 100 μl PBS per 5 ml sample.
After 30 min incubation in an overhead agitator, the magnetic particles which were present possibly as cell-antibody magnetic particle complexes, were washed three times with PBS by means of a magnetic particle concentrator (MPC®-S, company Dynal) and the adhering cells were treated subsequently corresponding to the mRNA isolation protocol described subsequently. […]
(§3) The thus produced amplificates of the cDNA were separated electrophoretically by means of a bioanalyser 2100 (company Agilent). […] Peaks with a level of <4.0 are evaluated as negative. Peaks, the level of which is 4.0 to 6.7, can be evaluated neither as positive nor as negative. In this way FIGS. 1 to 6 were produced and evaluated.

[2] = test system: tumour cell line Calu-3; assay: Detection of 2 inoculated Calu-3 tumour cells in treated blood samples; assay type: cell-based, human; conditions: 2 Calu-3 cells
Source text: as §1, §2
The magnetic particles prepared in this way were mixed in equal parts and added to the blood (EDTA) in 100 μl PBS per 5 ml sample. […]
as §3, with “evaluated. […]” for “evaluated.”
Tracks 1, 4 and 7 thereby show a ladder with size markers, tracks 2, 5 and 8 show the amplified DNA fragments of the tumour-associated transcripts to be detected in a healthy donor and of an internal control of β-actin. […]

[3] = 0.01% (w/v) DU, 0 h, 24 h and 48 h at 4° C.
[4] = 0.025%, 0.05% and 0.075% (w/v) bronopol, 24 h at 4° C.

| Structure (SMILES) | analysis result for illegitimate time-dependent induced expression, samples without inoculated cells [1, 3] | detection of tumour-associated transcripts of inoculated cells [2, 3] | analysis result for illegitimate time-dependent induced expression [1, 4] | detection of tumour-associated transcripts of inoculated cells [2, 4] |
| --- | --- | --- | --- | --- |
| O=C(NCO)N(CO)C1(CO)C(=O)NC(=O)N1CO (stereo not shown) [DU, diazolidinyl urea] | negative | detected unequivocally | – | – |
| O=[N+]([O-])C(Br)(CO)CO [bronopol, 2-bromo-2-nitropropane-1,3-diol] | – | – | negative | detected unequivocally |
